Experiments:
Assay type in all cases: in vivo
[1] = test system: sugarcane; experiment: Sugarcane ripening field studies, florpyrauxifen-benzyl and haloxyfop-P-methyl; settings: for ripening performance: versus the standards trinexapac and sulfometuron
[2] = test system: ratoon sugarcane; experiment: Ratoon sugarcane control field studies; settings: for % Control: post application, 4 to 6 leaves, 50 to 60 cm
Procedure: In order to study the activity of Haloxyfop-P-methyl as possible herbicide for ratoon sugarcane control, field studies were carried out. Haloxyfop-P-methyl was tested at 124; 248; 373; 620 and 1240 g ai/ha plus mineral oil at 0.5% v/v and compared to key standard, as glyphosate (Glizmax Prime®) at 2160 g ae/ha. Trials were sprayed postemergence with 4 to 6 leaves or 50 to 60 cm of ratoon sugarcane regrowth and assessed percentage of control at 14; 30; 45 and 60 days after application (DAA).

[3] = test system: sugarcane; experiment: Sugarcane ripening field studies, halauxifen-methyl plus haloxyfop-P-methyl; settings: six field studies, 30 days after application, rate g ai/ha: halauxifen-methyl 2.16, mixture 27 + 2.16, haloxyfop-P-methyl 27, sulfometuron 15, trinexapac 250; for Gain Fiber: untreated 0.5; for Gain POL: untreated 2.7; for Gain Purity: untreated 6.8; for Gain TRS: untreated 23.4
[4] = 30 days after application, rate g ai/ha: haloxyfop-P-methyl 27, florpyrauxifen-benzyl 2.2, mixture 27 + 2.2, sulfometuron 15, trinexapac 250, untreated 0.6
[5] = 30 days after application, rate g ai/ha: haloxyfop-P-methyl 27, florpyrauxifen-benzyl 2.2, mixture 27 + 2.2, sulfometuron 15, trinexapac 250, untreated 2.8
[6] = 30 days after application, rate g ai/ha: haloxyfop-P-methyl 27, florpyrauxifen-benzyl 2.2, mixture 27 + 2.2, sulfometuron 15, trinexapac 250, untreated 7.2
[7] = 30 days after application, rate g ai/ha: haloxyfop-P-methyl 27, florpyrauxifen-benzyl 2.2, mixture 27 + 2.2, sulfometuron 15, trinexapac 250, untreated 25.2
[8] = 45 days after application, rate g ai/ha: haloxyfop-P-methyl 27, florpyrauxifen-benzyl 2.2, mixture 27 + 2.2, sulfometuron 15, trinexapac 250, untreated 1.2
[9] = 45 days after application, rate g ai/ha: haloxyfop-P-methyl 27, florpyrauxifen-benzyl 2.2, mixture 27 + 2.2, sulfometuron 15, trinexapac 250, untreated 4.2
[10] = 45 days after application, rate g ai/ha: haloxyfop-P-methyl 27, florpyrauxifen-benzyl 2.2, mixture 27 + 2.2, sulfometuron 15, trinexapac 250, untreated 7.7
[11] = 45 days after application, rate g ai/ha: haloxyfop-P-methyl 27, florpyrauxifen-benzyl 2.2, mixture 27 + 2.2, sulfometuron 15, trinexapac 250, untreated 38.4
[12] = single application 50 L/ha 60 days before harvest, 30 DAA, rate g ai/ha: florpyrauxifen-benzyl 2.2, sulfometuron 15, trinexapac 250, untreated 2.8
[13] = single application 50 L/ha 60 days before harvest, 30 DAA, rate g ai/ha: florpyrauxifen-benzyl 2.2, sulfometuron 15, trinexapac 250, untreated 7.2
[14] = single application 50 L/ha 60 days before harvest, 30 DAA, rate g ai/ha: florpyrauxifen-benzyl 2.2, sulfometuron 15, trinexapac 250, untreated 25.2
[15] = single application 50 L/ha 60 days before harvest, 45 DAA, rate g ai/ha: florpyrauxifen-benzyl 2.2, sulfometuron 15, trinexapac 250, untreated 4.2
[16] = single application 50 L/ha 60 days before harvest, 45 DAA, rate g ai/ha: florpyrauxifen-benzyl 2.2, sulfometuron 15, trinexapac 250, untreated 7.7
[17] = single application 50 L/ha 60 days before harvest, 45 DAA, rate g ai/ha: florpyrauxifen-benzyl 2.2, sulfometuron 15, trinexapac 250, untreated 38.4
[18] = 14.5 g ai/ha, single application 50 L/ha 60 days before harvest, 30 DAA
[19] = 14.5 g ai/ha, single application 50 L/ha 60 days before harvest, 45 DAA
[20] = 50 g ai/ha, single application 50 L/ha 60 days before harvest, 30 DAA
[21] = 50 g ai/ha, single application 50 L/ha 60 days before harvest, 45 DAA
[22] = 100 g ai/ha, single application 50 L/ha 60 days before harvest, 30 DAA
[23] = 100 g ai/ha, single application 50 L/ha 60 days before harvest, 45 DAA

## COc1c(Cl)ccc(-c2nc(C(=O)OCc3ccccc3)c(Cl)c(N)c2F)c1F [Florpyrauxifen-benzyl, florpyrauxifen-benzyl]
[1]; [4]
  Gain Fiber: 0.5%
[1]; [5]
  Gain POL: 2.6%
[1]; [6]
  Gain Purity: 7.5%
[1]; [7]
  Gain TRS: 23.0 kg/ton
[1]; [8]
  Gain Fiber: 1.5%
[1]; [9]
  Gain POL: 4.9%
[1]; [10]
  Gain Purity: 10.3%
[1]; [11]
  Gain TRS: 44.0 kg/ton
[1]; at 30 DAA
  ripening performance: comparable to the standards trinexapac and sulfometuron
[1]; at 45 DAA
  ripening performance: unexpectedly superior to the standards
[1]; [12]
  Gain POL: 2.6%
[1]; [13]
  Gain Purity: 7.5%
[1]; [14]
  Gain TRS: 23.0 kg/ton
[1]; [15]
  Gain POL: 4.9%
[1]; [16]
  Gain Purity: 10.3%
[1]; [17]
  Gain TRS: 44.0 kg/ton

## O=C(O)CNCP(=O)(O)O [Glyphosate, glyphosate]
[2]; 2160 g ai/ha, 14 DAA
  % Control: 84.5%
[2]; 2160 g ai/ha, 30 DAA
  % Control: 89.3%
[2]; 2160 g ai/ha, 45 DAA
  % Control: 95.7%
[2]; 2160 g ai/ha, 60 DAA
  % Control: 96.0%

## COC(=O)c1nc(-c2ccc(Cl)c(OC)c2F)cc(N)c1Cl [Halauxifen-methyl, halauxifen-methyl]
[3]
  Gain Fiber: 0.5%
  Gain POL: 3%
  Gain Purity: 7.1%
  Gain TRS: 25.4 kg/ton

## COC(=O)[C@@H](C)Oc1ccc(Oc2ncc(C(F)(F)F)cc2Cl)cc1 [Haloxyfop-P-methyl, haloxyfop-P-methyl]
[1]; [18]
  Gain POL: 3.3%
  Gain Purity: 13.0%
  Gain TRS: 27.8 kg/ton
[1]; [19]
  Gain POL: 6.7%
  Gain Purity: 18.3%
  Gain TRS: 49.6 kg/ton
[1]; [20]
  Gain POL: 2.8%
  Gain Purity: 8.1%
  Gain TRS: 23.7 kg/ton
[1]; [21]
  Gain POL: 4.4%
  Gain Purity: 10.3%
  Gain TRS: 39.9 kg/ton
[1]; [22]
  Gain POL: 3.2%
  Gain Purity: 7.2%
  Gain TRS: 28.6 kg/ton
[1]; [23]
  Gain POL: 4.0%
  Gain Purity: 8.8%
  Gain TRS: 36.7 kg/ton
[1]; [4]
  Gain Fiber: 0.4%
[1]; [5]
  Gain POL: 2.6%
[1]; [6]
  Gain Purity: 6.1%
[1]; [7]
  Gain TRS: 23.7 kg/ton
[1]; [8]
  Gain Fiber: 0.1%
[1]; [9]
  Gain POL: 4.4%
[1]; [10]
  Gain Purity: 10.3%
[1]; [11]
  Gain TRS: 39.9 kg/ton
[3]
  Gain Fiber: 0.7%
  Gain POL: 2.9%
  Gain Purity: 6.6%
  Gain TRS: 24.7 kg/ton
[2]; 124 g ai/ha, 14 DAA
  % Control: 60.5%
[2]; 124 g ai/ha, 30 DAA
  % Control: 86.5%
[2]; 124 g ai/ha, 45 DAA
  % Control: 91.5%
[2]; 124 g ai/ha, 60 DAA
  % Control: 89.8%
[2]; 248 g ai/ha, 14 DAA
  % Control: 67.2%
[2]; 248 g ai/ha, 30 DAA
  % Control: 88.7%
[2]; 248 g ai/ha, 45 DAA
  % Control: 92.0%
[2]; 248 g ai/ha, 60 DAA
  % Control: 90.8%
[2]; 373 g ai/ha, 14 DAA
  % Control: 68.3%
[2]; 373 g ai/ha, 30 DAA
  % Control: 91.0%
[2]; 373 g ai/ha, 45 DAA
  % Control: 93.5%
[2]; 373 g ai/ha, 60 DAA
  % Control: 92.2%
[2]; 620 g ai/ha, 14 DAA
  % Control: 71.8%
[2]; 620 g ai/ha, 30 DAA
  % Control: 94.7%
[2]; 620 g ai/ha, 45 DAA
  % Control: 95.2%
[2]; 620 g ai/ha, 60 DAA
  % Control: 94.8%
[2]; 1240 g ai/ha, 14 DAA
  % Control: 74.5%
[2]; 1240 g ai/ha, 30 DAA
  % Control: 95.2%
[2]; 1240 g ai/ha, 45 DAA
  % Control: 96.3%
[2]; 1240 g ai/ha, 60 DAA
  % Control: 95.5%
[2]; rates from 373 to 1240 g ai/ha at 30 DAA
  ratoon sugarcane control: more than 90%

## COC(=O)c1ccccc1S(=O)(=O)NC(=O)Nc1nc(C)cc(C)n1 [Sulfometuron, sulfometuron-methyl]
[1]; [4]
  Gain Fiber: 0.6%
[1]; [5]
  Gain POL: 2.4%
[1]; [6]
  Gain Purity: 6.5%
[1]; [7]
  Gain TRS: 21.3 kg/ton
[1]; [8]
  Gain Fiber: 0.6%
[1]; [9]
  Gain POL: 3.6%
[1]; [10]
  Gain Purity: 10.9%
[1]; [11]
  Gain TRS: 31.4 kg/ton
[1]; [12]
  Gain POL: 2.4%
[1]; [13]
  Gain Purity: 6.5%
[1]; [14]
  Gain TRS: 21.3 kg/ton
[1]; [15]
  Gain POL: 3.6%
[1]; [16]
  Gain Purity: 10.9%
[1]; [17]
  Gain TRS: 31.4 kg/ton
[3]
  Gain Fiber: 0.1%
  Gain POL: 1.9%
  Gain Purity: 1.9%
  Gain TRS: 15.9 kg/ton

## CCOC(=O)C1CC(=O)C(=C(O)C2CC2)C(=O)C1 (stereo not drawn) [Trinexapac, trinexapac-ethyl]
[1]; [4]
  Gain Fiber: 0.4%
[1]; [5]
  Gain POL: 2.9%
[1]; [6]
  Gain Purity: 6.8%
[1]; [7]
  Gain TRS: 25.8 kg/ton
[1]; [8]
  Gain Fiber: 0.8%
[1]; [9]
  Gain POL: 3.8%
[1]; [10]
  Gain Purity: 5.8%
[1]; [11]
  Gain TRS: 34.9 kg/ton
[1]; [12]
  Gain POL: 2.9%
[1]; [13]
  Gain Purity: 6.8%
[1]; [14]
  Gain TRS: 25.0 kg/ton
[1]; [15]
  Gain POL: 3.8%
[1]; [16]
  Gain Purity: 5.8%
[1]; [17]
  Gain TRS: 34.9 kg/ton
[3]
  Gain Fiber: 0.4%
  Gain POL: 2.5%
  Gain Purity: 5.8%
  Gain TRS: 21.8 kg/ton
